Reference: ChEMBL document CHEMBL1201862, “PubChem BioAssay data set” (2004)
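Results reflect a 48-hour exposure of cells in 96-well plates to compound at five concentrations. Abbreviation: GI50, concentration required for 50% inhibition of growth.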 Calls of active or inactive are those of the source. Rule as the data show it: active = GI50 up to about 1.1 µM and inactive = higher.

Key:
Assay in all cases: NCI-60 cell line screen, 48 h
SK-OV-3 = tested on: SK-OV-3
HL-60 = tested on: HL-60
SK-MEL-28 = tested on: SK-MEL-28
HOP-62 = tested on: HOP-62
OVCAR-8 = tested on: OVCAR-8
NCI-H460 = tested on: NCI-H460
NCI-H23 = tested on: NCI-H23
K562 = tested on: K562
M14 = tested on: M14
CAKI-1 = tested on: CAKI-1
SW-620 = tested on: SW-620
HCC 2998 = tested on: HCC 2998
SNB-75 = tested on: SNB-75
OVCAR-4 = tested on: OVCAR-4
DU-145 = tested on: DU-145
HT-29 = tested on: HT-29
COLO 205 = tested on: COLO 205
PC-3 = tested on: PC-3
RXF 393 = tested on: RXF 393
KM12 = tested on: KM12
EKVX = tested on: EKVX
MOLT-4 = tested on: MOLT-4
Malme-3M = tested on: Malme-3M
CCRF-CEM = tested on: CCRF-CEM
SK-MEL-2 = tested on: SK-MEL-2
SK-MEL-5 = tested on: SK-MEL-5
NCI-H226 = tested on: NCI-H226
SF-295 = tested on: SF-295
LOX IMVI = tested on: LOX IMVI
IGROV-1 = tested on: IGROV-1
RPMI-8226 = tested on: RPMI-8226
UACC-62 = tested on: UACC-62
HOP-92 = tested on: HOP-92
UO-31 = tested on: UO-31
ACHN = tested on: ACHN
786-0 = tested on: 786-0
HCT-116 = tested on: HCT-116
Hs-578T = tested on: Hs-578T
UACC-257 = tested on: UACC-257
MDA-MB-231 = tested on: MDA-MB-231
MDA-N = tested on: MDA-N
OVCAR-5 = tested on: OVCAR-5
SNB-19 = tested on: SNB-19
A549 = tested on: A549
SF-268 = tested on: SF-268
HCT-15 = tested on: HCT-15
NCI-H522 = tested on: NCI-H522
U-251 = tested on: U-251
NCI/ADR-RES = tested on: NCI/ADR-RES
MCF7 = tested on: MCF7
SN12C = tested on: SN12C
TK-10 = tested on: TK-10
MDA-MB-435 = tested on: MDA-MB-435
A498 = tested on: A498
T47D = tested on: T47D
BT-549 = tested on: BT-549
SR = tested on: SR
SF-539 = tested on: SF-539
OVCAR-3 = tested on: OVCAR-3

**Q.** Which results are given for `Clc1ccccc1-c1nc2cc(C34CC5CC(CC(C5)C3)C4)ccc2[nH]1`?
**A.** GI50 (SK-OV-3): 16.1 µM (inactive); GI50 (HL-60): 23.7 µM (inactive); GI50 (SK-MEL-28): 20.6 µM (inactive); GI50 (HOP-62): 14.3 µM (inactive); GI50 (OVCAR-8): 10.9 µM (inactive); GI50 (NCI-H460): 30.3 µM (inactive); GI50 (NCI-H23): 14.4 µM (inactive); GI50 (K562): 27.5 µM (inactive); GI50 (M14): 19.8 µM (inactive); GI50 (CAKI-1): 31.4 µM (inactive); GI50 (SW-620): 46 µM (inactive); GI50 (HCC 2998): 49.3 µM (inactive); GI50 (SNB-75): 5.71 µM (inactive); GI50 (OVCAR-4): 21.5 µM (inactive); GI50 (DU-145): 23.2 µM (inactive); GI50 (HT-29): 11.4 µM (inactive); GI50 (COLO 205): 34 µM (inactive); GI50 (PC-3): 15.1 µM (inactive); GI50 (RXF 393): 5.4 µM (inactive); GI50 (KM12): 53.2 µM (inactive); GI50 (EKVX): 29.1 µM (inactive); GI50 (MOLT-4): 79.8 µM (inactive); GI50 (Malme-3M): 25.5 µM (inactive); GI50 (CCRF-CEM): 33 µM (inactive); GI50 (SK-MEL-2): 15 µM (inactive); GI50 (SK-MEL-5): 32.7 µM (inactive); GI50 (NCI-H226): 25.4 µM (inactive); GI50 (SF-295): 13.6 µM (inactive); GI50 (LOX IMVI): 12.4 µM (inactive); GI50 (IGROV-1): 17.3 µM (inactive); GI50 (RPMI-8226): 34.2 µM (inactive); GI50 (UACC-62): 13.9 µM (inactive); GI50 (HOP-92): 10.5 µM (inactive); GI50 (UO-31): 14.7 µM (inactive); GI50 (ACHN): 11.6 µM (inactive); GI50 (786-0): 12.1 µM (inactive); GI50 (HCT-116): 55.1 µM (inactive); GI50 (Hs-578T): 28.8 µM (inactive); GI50 (UACC-257): 59.7 µM (inactive); GI50 (MDA-MB-231): 15 µM (inactive); GI50 (MDA-N): 44 µM (inactive); GI50 (OVCAR-5): 17.8 µM (inactive); GI50 (SNB-19): 10 µM (inactive); GI50 (A549): 11.4 µM (inactive); GI50 (SF-268): 41.1 µM (inactive); GI50 (HCT-15): 41.9 µM; GI50 (NCI-H522): 17 µM (inactive); GI50 (U-251): 7.98 µM (inactive); GI50 (NCI/ADR-RES): 28.1 µM (inactive); GI50 (MCF7): 11.2 µM (inactive); GI50 (SN12C): 24.3 µM (inactive); GI50 (TK-10): 19.1 µM (inactive); GI50 (MDA-MB-435): > 100 µM (inactive); GI50 (A498): 25 µM (inactive); GI50 (T47D): 10.9 µM (inactive); GI50 (BT-549): 20 µM (inactive); GI50 (SR): 20.2 µM (inactive)

**Q.** What does the source list for `Cc1ccc(S(=O)(=O)N/N=C2/CC[C@H](C(C)(C)C)C[C@@H]2C)cc1`?
**A.** GI50 (SK-OV-3): 18.4 µM (inactive); GI50 (HL-60): 35.6 µM (inactive); GI50 (SK-MEL-28): 17 µM (inactive); GI50 (HOP-62): 13.8 µM (inactive); GI50 (SF-539): 18.2 µM (inactive); GI50 (OVCAR-8): 16 µM (inactive); GI50 (NCI-H460): 17 µM (inactive); GI50 (NCI-H23): 17.1 µM (inactive); GI50 (K562): 16.6 µM (inactive); GI50 (M14): 13.7 µM (inactive); GI50 (CAKI-1): 13.5 µM (inactive); GI50 (SW-620): 22.5 µM (inactive); GI50 (HCC 2998): 18.9 µM (inactive); GI50 (SNB-75): 17.8 µM (inactive); GI50 (OVCAR-4): 0.574 µM (active); GI50 (DU-145): 15.2 µM (inactive); GI50 (HT-29): 17.1 µM (inactive); GI50 (COLO 205): 17 µM (inactive); GI50 (PC-3): 18.3 µM (inactive); GI50 (KM12): 22.6 µM (inactive); GI50 (EKVX): 18 µM (inactive); GI50 (MOLT-4): 12.5 µM (inactive); GI50 (Malme-3M): 16.1 µM (inactive); GI50 (CCRF-CEM): 15.8 µM (inactive); GI50 (SK-MEL-2): 17.1 µM (inactive); GI50 (SK-MEL-5): 13.8 µM (inactive); GI50 (NCI-H226): 13.8 µM (inactive); GI50 (SF-295): 15.8 µM (inactive); GI50 (LOX IMVI): 14.7 µM (inactive); GI50 (IGROV-1): 14.9 µM (inactive); GI50 (RPMI-8226): 33.4 µM (inactive); GI50 (UACC-62): 15.7 µM (inactive); GI50 (HOP-92): 16.7 µM (inactive); GI50 (UO-31): 13.7 µM (inactive); GI50 (ACHN): 16.6 µM (inactive); GI50 (786-0): 17.1 µM (inactive); GI50 (HCT-116): 14.8 µM (inactive); GI50 (Hs-578T): 18.2 µM (inactive); GI50 (UACC-257): 13.9 µM (inactive); GI50 (MDA-MB-231): 21.2 µM (inactive); GI50 (MDA-N): 17.1 µM (inactive); GI50 (OVCAR-5): 18.2 µM (inactive); GI50 (SNB-19): 18.5 µM (inactive); GI50 (A549): 16.4 µM (inactive); GI50 (SF-268): > 10 µM (inactive); GI50 (HCT-15): 16.6 µM; GI50 (NCI-H522): > 10 µM (inactive); GI50 (U-251): 17.4 µM (inactive); GI50 (NCI/ADR-RES): 15 µM (inactive); GI50 (MCF7): 18.5 µM (inactive); GI50 (SN12C): 16.3 µM (inactive); GI50 (TK-10): 16.4 µM (inactive); GI50 (MDA-MB-435): 16 µM (inactive); GI50 (OVCAR-3): 12.6 µM (inactive); GI50 (A498): 17.6 µM (inactive); GI50 (T47D): 10.6 µM (inactive); GI50 (BT-549): 16.2 µM (inactive); GI50 (SR): 31.8 µM (inactive)
